Measured values published in ChEMBL document CHEMBL5291721, “A preclinical secondary pharmacology resource illuminates target-adverse drug reaction associations of marketed drugs” (Nat Commun, 2023).

Experiments:
Adenosine receptor A1 = molecular target: T1, Adenosine receptor A1 (Homo sapiens, UniProt P30542)
T1 sequence (P30542 whole entry): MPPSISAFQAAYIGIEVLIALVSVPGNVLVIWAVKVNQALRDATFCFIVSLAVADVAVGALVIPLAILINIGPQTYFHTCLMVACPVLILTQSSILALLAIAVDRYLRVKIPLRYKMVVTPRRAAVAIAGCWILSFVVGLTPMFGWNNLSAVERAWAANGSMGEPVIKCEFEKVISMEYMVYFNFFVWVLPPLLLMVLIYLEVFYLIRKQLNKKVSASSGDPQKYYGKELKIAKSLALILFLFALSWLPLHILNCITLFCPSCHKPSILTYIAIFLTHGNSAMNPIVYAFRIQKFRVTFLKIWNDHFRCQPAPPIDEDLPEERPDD

Adenosine receptor A3 = molecular target: T2, Adenosine receptor A3 (Homo sapiens, UniProt P0DMS8)
T2 sequence (P0DMS8 whole entry): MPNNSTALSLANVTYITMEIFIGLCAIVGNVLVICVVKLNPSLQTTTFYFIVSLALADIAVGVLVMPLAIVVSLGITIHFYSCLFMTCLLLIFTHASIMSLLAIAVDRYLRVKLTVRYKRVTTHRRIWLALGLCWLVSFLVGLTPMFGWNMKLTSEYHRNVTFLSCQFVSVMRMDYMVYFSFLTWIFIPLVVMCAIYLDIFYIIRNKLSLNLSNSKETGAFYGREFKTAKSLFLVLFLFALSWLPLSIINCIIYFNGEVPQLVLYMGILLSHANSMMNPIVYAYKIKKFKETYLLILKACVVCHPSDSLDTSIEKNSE

[1] = molecular target: T3, Alpha-2B adrenergic receptor (Homo sapiens, UniProt P18089)
T3 sequence (P18089 whole entry): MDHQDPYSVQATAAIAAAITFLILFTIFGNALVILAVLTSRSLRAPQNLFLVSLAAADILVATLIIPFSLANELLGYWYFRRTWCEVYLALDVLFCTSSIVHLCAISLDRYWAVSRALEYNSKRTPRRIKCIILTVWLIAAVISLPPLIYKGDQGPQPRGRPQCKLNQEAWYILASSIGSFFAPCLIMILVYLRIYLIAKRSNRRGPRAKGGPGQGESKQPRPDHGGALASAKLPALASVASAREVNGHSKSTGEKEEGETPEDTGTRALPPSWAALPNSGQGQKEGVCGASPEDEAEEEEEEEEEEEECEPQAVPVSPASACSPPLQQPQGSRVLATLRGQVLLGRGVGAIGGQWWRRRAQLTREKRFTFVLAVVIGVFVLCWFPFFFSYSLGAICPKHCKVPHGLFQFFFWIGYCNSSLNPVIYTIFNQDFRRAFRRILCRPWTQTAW

Cannabinoid receptor 1 = Cannabinoid receptor 1 (Homo sapiens, UniProt P21554); assay type: functional, cell-based
Sequence of Cannabinoid receptor 1 (P21554 whole entry): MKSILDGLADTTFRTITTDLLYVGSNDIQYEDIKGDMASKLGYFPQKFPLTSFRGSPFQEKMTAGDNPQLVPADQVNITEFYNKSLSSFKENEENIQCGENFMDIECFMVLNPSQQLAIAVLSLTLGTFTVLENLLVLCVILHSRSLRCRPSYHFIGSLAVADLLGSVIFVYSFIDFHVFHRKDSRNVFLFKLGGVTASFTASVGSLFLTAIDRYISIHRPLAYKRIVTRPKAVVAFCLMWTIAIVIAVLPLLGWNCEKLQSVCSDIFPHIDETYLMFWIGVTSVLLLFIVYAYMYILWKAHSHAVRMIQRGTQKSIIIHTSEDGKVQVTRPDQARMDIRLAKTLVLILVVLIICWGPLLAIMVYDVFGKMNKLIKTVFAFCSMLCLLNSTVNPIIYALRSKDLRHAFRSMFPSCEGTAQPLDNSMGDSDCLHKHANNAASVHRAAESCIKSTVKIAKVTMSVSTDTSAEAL

[2] = molecular target: Glutamate receptor ionotropic, NMDA 1 (Rattus norvegicus, UniProt P35439)
Histamine H1 receptor = Histamine H1 receptor (Homo sapiens, UniProt P35367)
Sequence of Histamine H1 receptor (P35367 whole entry): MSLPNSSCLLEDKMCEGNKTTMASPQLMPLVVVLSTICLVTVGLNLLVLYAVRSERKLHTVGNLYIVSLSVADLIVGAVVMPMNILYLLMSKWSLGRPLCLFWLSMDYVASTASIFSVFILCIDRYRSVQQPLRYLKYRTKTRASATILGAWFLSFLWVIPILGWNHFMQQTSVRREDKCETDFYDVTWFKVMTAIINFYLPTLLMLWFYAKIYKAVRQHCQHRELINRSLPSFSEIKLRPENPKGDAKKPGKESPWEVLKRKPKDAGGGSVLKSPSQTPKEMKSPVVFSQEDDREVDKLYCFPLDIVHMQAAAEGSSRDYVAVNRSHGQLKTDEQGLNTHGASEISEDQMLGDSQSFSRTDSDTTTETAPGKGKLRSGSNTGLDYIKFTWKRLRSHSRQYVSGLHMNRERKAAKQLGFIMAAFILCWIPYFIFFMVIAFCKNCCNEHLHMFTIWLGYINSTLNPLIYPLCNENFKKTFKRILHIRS

Histamine H2 receptor = Histamine H2 receptor (Homo sapiens, UniProt P25021); assay type: functional, cell-based
Sequence of Histamine H2 receptor (P25021 whole entry): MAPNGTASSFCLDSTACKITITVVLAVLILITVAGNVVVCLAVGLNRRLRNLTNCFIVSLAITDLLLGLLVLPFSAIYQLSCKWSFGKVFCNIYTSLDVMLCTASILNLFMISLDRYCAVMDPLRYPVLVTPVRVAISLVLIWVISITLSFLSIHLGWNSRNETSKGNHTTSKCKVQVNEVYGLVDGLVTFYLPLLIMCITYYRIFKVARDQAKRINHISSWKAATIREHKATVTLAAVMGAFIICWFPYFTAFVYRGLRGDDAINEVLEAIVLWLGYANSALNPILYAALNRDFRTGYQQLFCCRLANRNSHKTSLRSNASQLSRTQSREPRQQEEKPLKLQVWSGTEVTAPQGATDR

Melanocortin receptor 3 = Melanocortin receptor 3 (Homo sapiens, UniProt P41968)
Sequence of Melanocortin receptor 3 (P41968 whole entry): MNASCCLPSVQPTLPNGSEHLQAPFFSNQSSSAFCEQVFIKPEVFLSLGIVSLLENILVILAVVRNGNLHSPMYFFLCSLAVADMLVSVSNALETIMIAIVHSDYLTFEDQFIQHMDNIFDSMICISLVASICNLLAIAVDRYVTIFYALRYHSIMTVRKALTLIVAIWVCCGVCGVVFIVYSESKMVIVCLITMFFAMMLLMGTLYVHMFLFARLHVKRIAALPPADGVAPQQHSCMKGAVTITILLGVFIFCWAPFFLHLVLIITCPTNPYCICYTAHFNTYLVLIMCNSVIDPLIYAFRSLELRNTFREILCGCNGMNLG

Motilin receptor = Motilin receptor (Homo sapiens, UniProt O43193)
Sequence of Motilin receptor (O43193 whole entry): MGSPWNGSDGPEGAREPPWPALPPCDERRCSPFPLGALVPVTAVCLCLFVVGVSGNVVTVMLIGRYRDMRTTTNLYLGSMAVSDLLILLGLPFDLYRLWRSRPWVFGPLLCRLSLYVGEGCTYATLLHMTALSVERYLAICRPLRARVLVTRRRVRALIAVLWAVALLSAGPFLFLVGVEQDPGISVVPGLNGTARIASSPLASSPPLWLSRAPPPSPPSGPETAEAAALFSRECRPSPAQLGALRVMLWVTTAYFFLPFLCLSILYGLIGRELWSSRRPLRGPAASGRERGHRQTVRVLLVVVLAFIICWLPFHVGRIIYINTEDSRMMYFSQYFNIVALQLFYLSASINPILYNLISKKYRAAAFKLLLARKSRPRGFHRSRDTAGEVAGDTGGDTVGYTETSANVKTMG

[3] = molecular target: T4, Neuropeptide Y receptor type 1 (Homo sapiens, UniProt P25929)
T4 sequence (P25929 whole entry): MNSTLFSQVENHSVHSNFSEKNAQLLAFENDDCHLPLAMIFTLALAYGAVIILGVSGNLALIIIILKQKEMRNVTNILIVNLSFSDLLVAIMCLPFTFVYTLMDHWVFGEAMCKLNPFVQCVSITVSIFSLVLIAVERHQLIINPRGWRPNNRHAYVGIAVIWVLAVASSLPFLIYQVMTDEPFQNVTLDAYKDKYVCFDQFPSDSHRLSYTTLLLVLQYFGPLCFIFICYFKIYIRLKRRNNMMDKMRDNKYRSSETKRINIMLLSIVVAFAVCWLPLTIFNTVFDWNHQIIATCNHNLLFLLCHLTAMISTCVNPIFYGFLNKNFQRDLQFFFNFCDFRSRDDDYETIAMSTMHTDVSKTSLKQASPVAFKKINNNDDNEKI

Thromboxane A2 receptor = molecular target: T5, Thromboxane A2 receptor (Homo sapiens, UniProt P21731)
T5 sequence (P21731 whole entry): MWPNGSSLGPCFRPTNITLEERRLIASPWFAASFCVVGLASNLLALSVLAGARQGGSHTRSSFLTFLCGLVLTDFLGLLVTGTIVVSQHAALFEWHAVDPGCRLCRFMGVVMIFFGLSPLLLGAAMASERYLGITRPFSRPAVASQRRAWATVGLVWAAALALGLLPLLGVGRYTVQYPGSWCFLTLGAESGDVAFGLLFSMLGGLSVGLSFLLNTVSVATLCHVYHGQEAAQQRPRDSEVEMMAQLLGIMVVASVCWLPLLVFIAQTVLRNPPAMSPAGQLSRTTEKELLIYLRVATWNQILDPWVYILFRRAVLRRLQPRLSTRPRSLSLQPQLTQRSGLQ

[4] = molecular target: Sodium-dependent dopamine transporter (Homo sapiens, UniProt Q01959)
Sequence of Sodium-dependent dopamine transporter (Q01959 whole entry): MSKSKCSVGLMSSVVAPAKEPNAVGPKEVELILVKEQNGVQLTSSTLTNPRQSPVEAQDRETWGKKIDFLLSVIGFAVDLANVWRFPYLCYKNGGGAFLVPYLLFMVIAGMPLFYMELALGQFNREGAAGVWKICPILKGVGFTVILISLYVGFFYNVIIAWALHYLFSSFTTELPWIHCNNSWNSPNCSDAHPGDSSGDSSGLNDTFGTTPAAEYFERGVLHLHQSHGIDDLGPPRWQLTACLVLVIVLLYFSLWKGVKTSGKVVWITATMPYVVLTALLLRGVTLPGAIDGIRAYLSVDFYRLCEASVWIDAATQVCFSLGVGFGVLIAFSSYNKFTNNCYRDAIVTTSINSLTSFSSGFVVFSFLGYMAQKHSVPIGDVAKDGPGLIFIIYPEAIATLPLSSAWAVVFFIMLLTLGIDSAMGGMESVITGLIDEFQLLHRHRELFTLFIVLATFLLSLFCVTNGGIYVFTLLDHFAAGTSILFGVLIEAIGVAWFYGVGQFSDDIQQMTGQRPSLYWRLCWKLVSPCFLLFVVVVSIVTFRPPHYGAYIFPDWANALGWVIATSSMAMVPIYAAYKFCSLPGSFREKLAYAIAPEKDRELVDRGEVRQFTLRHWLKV

[5] = molecular target: Sodium-dependent noradrenaline transporter (Homo sapiens, UniProt P23975)
Sequence of Sodium-dependent noradrenaline transporter (P23975 whole entry): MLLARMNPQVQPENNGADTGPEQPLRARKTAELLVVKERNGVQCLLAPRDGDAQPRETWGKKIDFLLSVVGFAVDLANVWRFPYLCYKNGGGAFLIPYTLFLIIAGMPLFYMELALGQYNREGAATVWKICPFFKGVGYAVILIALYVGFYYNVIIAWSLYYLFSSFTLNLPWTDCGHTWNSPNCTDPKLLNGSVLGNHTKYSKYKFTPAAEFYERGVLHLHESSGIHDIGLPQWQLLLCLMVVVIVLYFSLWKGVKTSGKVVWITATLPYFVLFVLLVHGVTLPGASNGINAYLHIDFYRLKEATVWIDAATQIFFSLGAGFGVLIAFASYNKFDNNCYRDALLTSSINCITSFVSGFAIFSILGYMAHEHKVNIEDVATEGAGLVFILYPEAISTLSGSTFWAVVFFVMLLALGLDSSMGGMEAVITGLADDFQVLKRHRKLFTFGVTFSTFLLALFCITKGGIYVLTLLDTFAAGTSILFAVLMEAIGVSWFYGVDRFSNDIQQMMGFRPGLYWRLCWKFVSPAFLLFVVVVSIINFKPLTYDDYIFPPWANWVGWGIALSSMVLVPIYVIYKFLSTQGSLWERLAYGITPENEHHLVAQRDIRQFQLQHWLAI
Further: assay procedure not described here.

In the case of CN[C@@H](C)[C@H](O)c1ccccc1 [EPHEDRINE], the AC50 (Adenosine receptor A1) is reported as > 30 µM, the AC50 (Adenosine receptor A3) is reported as > 30 µM and the AC50 [1] is reported as > 10 µM. For the same molecule, the AC50 (Cannabinoid receptor 1) was > 30 µM, the AC50 [2] was > 10 µM and the AC50 (Histamine H1 receptor) was > 10 µM. The AC50 (Histamine H2 receptor) was > 10 µM, the AC50 (Melanocortin receptor 3) was > 30 µM and the AC50 (Motilin receptor) was > 10 µM. The AC50 [3] was > 30 µM, the AC50 (Thromboxane A2 receptor) was > 30 µM and the AC50 [4] was > 10 µM. The AC50 [5] was > 10 µM.

In the case of C[C@H]1C[C@@H]2[C@H]([C@@H](O)C[C@@]3(C)[C@H]2CC[C@]3(O)C(=O)COC(=O)CCC(=O)O)[C@@]2(C)C=CC(=O)C=C12 [METHYLPREDNISOLONE HEMISUCCINATE], the AC50 (Adenosine receptor A1) is reported as > 30 µM, the AC50 (Adenosine receptor A3) is reported as > 30 µM and the AC50 [1] is reported as > 30 µM. For the same molecule, the AC50 (Cannabinoid receptor 1) was > 30 µM, the AC50 [2] was > 30 µM and the AC50 (Histamine H1 receptor) was > 30 µM. The AC50 (Histamine H2 receptor) was > 30 µM, the AC50 (Melanocortin receptor 3) was > 30 µM and the AC50 (Motilin receptor) was > 30 µM. The AC50 [3] was > 30 µM, the AC50 [4] was > 30 µM and the AC50 [5] was > 30 µM.

For C=C1CC[C@@]2(O)[C@H]3Cc4ccc(O)c5c4[C@@]2(CCN3CC2CC2)[C@H]1O5, the AC50 (Adenosine receptor A1) was > 30 µM, the AC50 (Adenosine receptor A3) was > 30 µM and the AC50 [1] was > 30 µM. The AC50 (Cannabinoid receptor 1) was > 30 µM, the AC50 [2] was > 30 µM and the AC50 (Histamine H1 receptor) was > 30 µM. The AC50 (Histamine H2 receptor) was > 30 µM, the AC50 (Melanocortin receptor 3) was > 30 µM and the AC50 (Motilin receptor) was > 30 µM. The AC50 [3] was > 30 µM, the AC50 (Thromboxane A2 receptor) was > 30 µM and the AC50 [4] was > 30 µM. The AC50 [5] was > 30 µM.

In the case of CCCCC(C)(O)C/C=C/[C@H]1[C@H](O)CC(=O)[C@@H]1CCCCCCC(=O)OC (stereo not given in full) [MISOPROSTOL], the AC50 (Adenosine receptor A1) is reported as > 30 µM, the AC50 (Adenosine receptor A3) is reported as > 30 µM and the AC50 [1] is reported as > 30 µM. The AC50 (Cannabinoid receptor 1) was > 30 µM, the AC50 [2] was > 30 µM and the AC50 (Histamine H1 receptor) was > 30 µM. The AC50 (Histamine H2 receptor) was > 30 µM, the AC50 (Melanocortin receptor 3) was > 30 µM and the AC50 (Motilin receptor) was > 30 µM. For the same molecule, the AC50 [3] was > 30 µM, the AC50 (Thromboxane A2 receptor) was > 30 µM and the AC50 [4] was > 30 µM. The AC50 [5] was > 30 µM.

With C1COC(NC(C2CC2)C2CC2)=N1 [RILMENIDINE] the AC50 (Adenosine receptor A1) was > 30 µM, the AC50 (Adenosine receptor A3) was > 30 µM and the AC50 [1] was 7.5 µM. The AC50 (Cannabinoid receptor 1) was > 30 µM, the AC50 [2] was > 10 µM and the AC50 (Histamine H1 receptor) was > 10 µM. The AC50 (Histamine H2 receptor) was > 10 µM, the AC50 (Melanocortin receptor 3) was > 30 µM and the AC50 (Motilin receptor) was > 10 µM. For the same molecule, the AC50 [3] was > 30 µM, the AC50 (Thromboxane A2 receptor) was > 30 µM and the AC50 [4] was > 30 µM. For the same molecule, the AC50 [5] was > 30 µM.

CCCCCCCCCCCC[N+](C)(C)CCOc1ccccc1 [DOMIPHEN] was tested, and the AC50 (Adenosine receptor A1) was > 30 µM, the AC50 (Adenosine receptor A3) was 10 µM and the AC50 [1] was 3.8 µM. For the same molecule, the AC50 (Cannabinoid receptor 1) was 17 µM, the AC50 [2] was > 30 µM and the AC50 (Histamine H1 receptor) was 12 µM. For the same molecule, the AC50 (Histamine H2 receptor) was > 30 µM, the AC50 (Motilin receptor) was 3 µM and the AC50 [3] was 4.4 µM. For the same molecule, the AC50 (Thromboxane A2 receptor) was > 30 µM, the AC50 [4] was 2.5 µM and the AC50 [5] was 1.4 µM.

In the case of CN1C(=O)CC(c2ccccc2)C1=O (stereo not given) [PHENSUXIMIDE], the AC50 (Adenosine receptor A1) is reported as > 10 µM, the AC50 (Adenosine receptor A3) is reported as > 10 µM and the AC50 [1] is reported as > 10 µM. The AC50 (Cannabinoid receptor 1) was > 30 µM, the AC50 [2] was > 10 µM and the AC50 (Histamine H1 receptor) was > 10 µM. For the same molecule, the AC50 (Histamine H2 receptor) was > 10 µM, the AC50 (Melanocortin receptor 3) was > 10 µM and the AC50 (Motilin receptor) was > 10 µM. The AC50 [3] was > 10 µM, the AC50 (Thromboxane A2 receptor) was > 10 µM and the AC50 [4] was > 10 µM. For the same molecule, the AC50 [5] was > 10 µM.

For CN1CCCN=C1COC(=O)C(O)(c1ccccc1)C1CCCCC1 (stereo not given) [OXYPHENCYCLIMINE], the AC50 (Adenosine receptor A1) was > 10 µM, the AC50 (Adenosine receptor A3) was > 10 µM and the AC50 [1] was > 10 µM. The AC50 [2] was > 10 µM, the AC50 (Histamine H1 receptor) was 0.99 µM and the AC50 (Histamine H2 receptor) was > 10 µM. For the same molecule, the AC50 (Melanocortin receptor 3) was > 10 µM, the AC50 (Motilin receptor) was > 10 µM and the AC50 [3] was > 10 µM. For the same molecule, the AC50 (Thromboxane A2 receptor) was > 10 µM, the AC50 [4] was > 30 µM and the AC50 [5] was > 30 µM.

With CC(C)[N+](C)(CCC(C(N)=O)(c1ccccc1)c1ccccc1)C(C)C [ISOPROPAMIDE] the AC50 (Adenosine receptor A1) was > 10 µM, the AC50 (Adenosine receptor A3) was > 10 µM and the AC50 [1] was > 10 µM. For the same molecule, the AC50 [2] was > 10 µM, the AC50 (Histamine H1 receptor) was > 10 µM and the AC50 (Histamine H2 receptor) was > 10 µM. For the same molecule, the AC50 (Melanocortin receptor 3) was > 10 µM, the AC50 (Motilin receptor) was > 10 µM and the AC50 [3] was > 10 µM. The AC50 (Thromboxane A2 receptor) was > 10 µM, the AC50 [4] was > 10 µM and the AC50 [5] was > 10 µM.

In the case of CN1CCC2=C(C1)C(c1ccccc1)c1ccccc12 (stereo not given) [PHENINDAMINE], the AC50 (Adenosine receptor A1) is reported as > 10 µM, the AC50 (Adenosine receptor A3) is reported as > 10 µM and the AC50 [1] is reported as > 10 µM. The AC50 [2] was > 10 µM, the AC50 (Histamine H1 receptor) was 8.1 µM and the AC50 (Histamine H2 receptor) was > 10 µM. The AC50 (Melanocortin receptor 3) was > 10 µM, the AC50 (Motilin receptor) was > 10 µM and the AC50 [3] was > 10 µM. For the same molecule, the AC50 (Thromboxane A2 receptor) was > 10 µM, the AC50 [4] was > 30 µM and the AC50 [5] was > 30 µM.
